# Results: PubChem BioAssay (NCI)
# Values joined by “and” are separate entries in the source; they are usually repeats but may differ in a detail not shown here. Equal entries are not always repeated.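 Assay format: 96-well plates, 48-hour exposure. GI50: concentration for 50% inhibition of growth. TGI: total growth inhibition.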 *1 amine or outer side, *2 acyl side, *3 side chain or, on linkers, in order; H or OH if unused. Where a SMILES comes first, the peptide text is derived from it. Bridges are numbered along the chain shown (N, C = ends). Roman numbers before positions name the chains, in order. X23 = CCCCCCCCCCCCCCC(=O)NC(CCCCN[*:2])C(=O)CN1CCCC1C(=O)[*:1]
# Legend:
# Test in all cases: DTP human tumour cell line panel, 48 h
# KM12 colon = system: KM12 colon
# NCI-H23 lung = system: NCI-H23 lung
# SNB-19 CNS = system: SNB-19 CNS
# SW-620 colon = system: SW-620 colon
# NCI-H460 lung = system: NCI-H460 lung
# HCT-116 colon = system: HCT-116 colon
# SF-268 CNS = system: SF-268 CNS
# SF-539 CNS = system: SF-539 CNS
# SN12C renal = system: SN12C renal
# HCT-15 colon = system: HCT-15 colon
SMILES,GI50 (KM12 colon),TGI (KM12 colon) [µM],GI50 (NCI-H23 lung),TGI (NCI-H23 lung) [µM],GI50 (SNB-19 CNS) [µM],TGI (SNB-19 CNS) [µM],GI50 (SW-620 colon) [µM],TGI (SW-620 colon),GI50 (NCI-H460 lung) [µM],TGI (NCI-H460 lung) [µM],GI50 (HCT-116 colon) [µM],TGI (HCT-116 colon) [µM],GI50 (SF-268 CNS) [µM],TGI (SF-268 CNS) [µM],GI50 (SF-539 CNS) [µM],TGI (SF-539 CNS) [µM],TGI (SN12C renal),TGI (HCT-15 colon) [µM],GI50 (SN12C renal) [µM],GI50 (HCT-15 colon) [µM]
CCCCCCCCCCCCCCC(=O)NC(CCCCNC(=O)C1CCCN1C(=O)C(CCCCN)NC(=O)C(CCCCN)NC(=O)C(CCCCN)NC(=O)C(CCCNC(=N)N)NC(=O)C(CCCCN)NC(=O)C(N)C(C)C)C(=O)CN1CCCC1C(=O)NCC(=O)NC(Cc1ccccc1)C(=O)N1CCCC1C(=O)NC(CO)C(=O)NC(Cc1ccc(O)cc1)C(=O)NC(CCCCN)C(=O)NC(CC(C)C)C(=O)NC(CCCNC(=N)N)C(=O)N1CCCC1C(=O)NCC(N)=O (stereo not drawn) (I: GFPSYKLRPG-NH2 / II: H-VKRKKKP; linker I:N-II:C via X23; configuration not given here),1.89 µM,3.85,23.8 µM,92.8,31.4,76.6,30,> 100 µM,14.6,49.9,14.3,33.1,14.6,40.8,27.7,75.1,–,–,–,–
O=C1/C(=C/c2ccc3c(c2)OCO3)Sc2scc(-c3ccc(O)c(O)c3)[n+]21,–,13.1,–,9.29,–,36.2,–,–,–,12.8,–,6.29,–,97.2,–,7.84,4.7 µM,3.61,–,–
O=CNNC(=O)CSc1nc2ccc(I)cc2c(=O)n1Cc1ccccc1,–,> 100,–,89.6,–,> 100,–,> 100 µM,–,50.9,–,49.5,–,> 100,–,> 100,79.8 µM,> 100,–,–
CC(=O)C1=C(C)N(c2ccc(C)cc2)C2(O)C=CC(=O)C3=C(O)c4ccccc4C(=O)C312 (stereo not drawn),–,55.1,–,52.5,–,> 100,–,> 100 µM,–,> 100,–,> 100,–,62.4,–,97.6,36.9 µM,> 100,–,–
COc1cccc2c1C(=O)c1c(O)c3c(c(O)c1C2=O)C[C@@](O)(C(C)=O)C[C@@H]3OC1CC(N(C)C)C(O)C(C)O1 (stereo partly drawn),0.0171 µM and 0.0131 µM,–,0.0394 µM and < 0.0142 µM,–,0.0396,–,0.00484,0.622 µM and 1.56 µM,0.00786,–,0.00225,–,< 0.0191,–,0.0173,–,2.15 µM and 1.01 µM,–,0.0164,0.0211
COC1=CCC2=C(CCN(C(=O)C3CC3)C2Cc2ccc(OC)c(O)c2)C1 (stereo not drawn),–,> 100,–,66.1,–,> 100,–,> 100 µM,–,> 100,–,> 100,–,> 100,–,> 100,> 100 µM,59.6,–,–
Nc1nccc2c1ncn2C1C=C(CO)C(O)C1O (stereo not drawn),0.755 µM,> 1000,269 µM,> 1000,> 1000,> 1000,0.775,> 1000 µM,0.578,> 1000,–,> 85.8,–,–,711,> 1000,> 1000 µM,> 1000,0.351,226
O=C1CSc2sc(=S)sc2S1,–,> 100,–,> 100,–,> 100,–,> 100 µM,–,> 100,–,> 100,–,> 100,–,> 100,> 100 µM,> 100,–,–
O=C1NC2(NC(=O)C1=O)Nc1ccccc1S2,–,> 100,–,> 100,–,> 100,–,> 46.1 µM,–,> 100,–,38.9,–,> 76.3,–,62.7,> 61.4 µM,> 59.5,–,–
Cc1cc(O)c2cc3c(O)c(O)ccc3cc2c1,–,2.32,–,6,–,> 100,–,> 28.9 µM,–,3.63,–,–,–,8.51,–,3.27,17.3 µM,5.91,–,–
O=[P+](O)c1cccs1,–,–,–,> 100,–,> 100,–,> 100 µM,–,> 100,–,> 100,–,> 100,–,> 100,> 100 µM,> 100,–,–
O=NN(CCCl)C(=O)Nc1ccc(Cl)c(Cl)c1,–,> 100,–,> 100,–,> 100,–,> 100 µM,–,> 100,–,> 100,–,> 100,–,> 100,> 100 µM,> 100,–,–
CC1C(O)[C@@]2(OC[C@@]34C(=O)CC5(O)[C@H](CCC6Cc7nc8c(nc7C[C@]65C)CC5CC[C@@H]6C7=C[C@H]9O[C@@]%10(O[C@@](C)(CO)C[C@@H]%10O)C(C)[C@@]9(O)[C@]7(C)[C@@H](O)CC6[C@]5(C)C8)C3=CC[C@H]4C2C)OC1(C)C (stereo partly drawn),–,> 3.55,–,0.435,–,0.206,–,0.0433 µM,–,0.0937,–,0.542,–,0.37,–,0.00487,> 3.55 µM,0.379,–,–
Cc1ccc([S+](c2ccccc2)c2cc(C)ccc2C)cc1 (stereo not drawn),–,> 100,–,–,–,> 100,–,> 100 µM,–,> 100,–,> 100,–,> 100,–,> 100,46.3 µM,–,–,–
CC(=O)OCC1OC(N2C(=O)CC(N)=Nc3ccccc32)C(OC(C)=O)C(OC(C)=O)C1OC(C)=O (stereo not drawn),–,> 100,–,> 100,–,> 100,–,> 100 µM,–,> 100,–,> 100,–,> 100,–,67.5,> 100 µM,> 100,–,–
CN(CCNC(=O)c1cn(C)c2c1ccc1cc(Cl)ccc12)CCNC(=O)c1cn(C)c2c1ccc1cc(Cl)ccc12,–,3.03,–,4.87,–,–,–,40.5 µM,–,> 100,–,3.18,–,3.51,–,9.35,3.37 µM,3.3,–,–
CCc1cccc(C(C)C)c1NC1=C([n+]2ccc(C)cc2)C(=O)c2ccccc2C1=O,–,> 43.4,–,> 100,–,> 100,–,> 100 µM,–,4.09,–,> 100,–,5.8,–,4.27,8.35 µM,13.9,–,–
Oc1ccc(NCc2cc(O)ccc2O)cc1,–,42,–,38.7,–,35.1,–,> 100 µM,–,39.1,–,35.8,–,34.8,–,56.4,39.3 µM,36.8,–,–
COC[C@@H]1Cc2cc(OC)c3c(c2[C@H](c2ccc(OC)c(OC)c2)[C@H]1COC)OCO3,–,> 100,–,> 100,–,> 100,–,> 100 µM,–,> 100,–,> 100,–,> 100,–,> 100,> 100 µM,> 100,–,–
C[As](C)SCC(NC(=O)CCC(N)C(=O)O)C(=O)NCC(=O)O.Cl.c1ccncc1 (stereo not drawn),–,3.81,–,2.7,–,25.5,–,6.59 µM,–,8.9,–,1.53,–,3.59,–,2.09,2.14 µM,0.977,–,–
O=CN(O)CC(=O)O.[Ni],–,> 100,–,> 100,–,> 100,–,> 100 µM,–,> 100,–,> 100,–,> 100,–,> 100,> 100 µM,> 100,–,–
CC(C)(C)OC(=O)N1CCCC1C(=O)NCCNc1ccc(NCCNC(=O)C2CCCN2C(=O)OC(C)(C)C)c2c1C(=O)c1ccccc1C2=O (stereo not drawn),–,41.7,–,29.4,–,–,–,29.8 µM,–,–,–,26,–,> 100,–,30.1,–,26.8,–,–
Cc1ccc(NC(=O)CC(=O)n2nc(-c3ccccc3)c(N=Nc3ccccc3C(=O)O)c2-c2ccccc2)cc1,–,> 100,–,–,–,> 100,–,> 100 µM,–,–,–,> 100,–,> 100,–,> 100,> 100 µM,> 100,–,–
NS(=O)(=O)c1ccc(N=Nc2ccc(O)c(O)c2)cc1,–,32.5,–,51.8,–,84,–,41.4 µM,–,58.9,–,26.2,–,50.2,–,45.1,44.9 µM,12.6,–,–
OCCSCc1cc(Cl)cc(Cl)c1O,–,> 100,–,> 100,–,> 100,–,> 100 µM,–,> 100,–,> 100,–,> 100,–,–,> 100 µM,> 100,–,–
